Experimental data from ChEMBL document CHEMBL1201862, “PubChem BioAssay data set” (2004).
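Briefly, cells in 96-well plates were exposed to five compound concentrations for 48 h, and endpoints were estimated by linear interpolation. The concentration for 50% growth inhibition is given as GI50.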 Activity calls are given as the source filed them. Rule as the data show it: active = GI50 up to about 1.1 µM and inactive = higher.

Columns and labels:
Assay in all cases: NCI-60 cell line screen, 48 h
KM12 = test system: KM12
DU-145 = test system: DU-145
M14 = test system: M14
SR = test system: SR
EKVX = test system: EKVX
SN12C = test system: SN12C
HT-29 = test system: HT-29
PC-3 = test system: PC-3
HOP-62 = test system: HOP-62
SF-268 = test system: SF-268
ACHN = test system: ACHN
BT-549 = test system: BT-549
Hs-578T = test system: Hs-578T
UACC-62 = test system: UACC-62
NCI-H23 = test system: NCI-H23
Malme-3M = test system: Malme-3M
K562 = test system: K562
HOP-92 = test system: HOP-92
A498 = test system: A498

Row | SMILES | GI50 (KM12) | GI50 (DU-145) | GI50 (M14) | GI50 (SR) | GI50 (EKVX) | GI50 (SN12C) | GI50 (HT-29) | GI50 (PC-3) | GI50 (HOP-62) | GI50 (SF-268) | GI50 (ACHN) | GI50 (BT-549) | GI50 (Hs-578T) | GI50 (UACC-62) | GI50 (NCI-H23) | GI50 (Malme-3M) | GI50 (K562) | GI50 (HOP-92) | GI50 (A498)
1 | O=C1NCc2ccccc2S(=O)(=O)n2cccc21 | > 100 µM (inactive) | > 100 µM (inactive) | > 100 µM (inactive) | 6.28 µM (inactive) | > 100 µM (inactive) | > 100 µM (inactive) | > 100 µM (inactive) | > 100 µM (inactive) | > 100 µM (inactive) | > 100 µM (inactive) | > 100 µM (inactive) | > 100 µM (inactive) | > 100 µM (inactive) | > 100 µM (inactive) | > 100 µM (inactive) | > 100 µM (inactive) |  |  | 
2 | O=S(=O)(c1ccc(Br)cc1)n1c2ccc(Br)cc2c2nc3ccccc3nc21 | > 100 µM (inactive) | > 100 µM (inactive) | > 100 µM (inactive) |  | > 100 µM (inactive) | > 100 µM (inactive) | > 100 µM (inactive) | > 100 µM (inactive) | 34.3 µM (inactive) | 85.9 µM (inactive) | 39.6 µM (inactive) | > 100 µM (inactive) | 47.6 µM (inactive) | 38.3 µM (inactive) | > 100 µM (inactive) | > 100 µM (inactive) | > 100 µM (inactive) | 39.7 µM (inactive) | > 100 µM (inactive)
3 | CN(C)CCNC(=O)Cn1cc([N+](=O)[O-])c(=O)c2ccccc21 | > 100 µM (inactive) | > 100 µM (inactive) | > 100 µM (inactive) | > 100 µM (inactive) |  | > 100 µM (inactive) | > 100 µM (inactive) | > 100 µM (inactive) | > 100 µM (inactive) | > 100 µM (inactive) | > 100 µM (inactive) | > 100 µM (inactive) | > 100 µM (inactive) | > 100 µM (inactive) | > 100 µM (inactive) | > 100 µM (inactive) | > 100 µM (inactive) |  | > 100 µM (inactive)
4 | O=C1/C(=C\c2ccc(F)cc2)CCOc2c1ccc1ccccc21 | 7.94 µM (inactive) | 31 µM (inactive) | 26.2 µM (inactive) |  | 31.4 µM (inactive) | 35.3 µM (inactive) | 17.4 µM (inactive) | 33 µM (inactive) | 26.8 µM (inactive) | 23.4 µM (inactive) |  | 25.6 µM (inactive) | 40.3 µM (inactive) | 37.2 µM (inactive) | 12.8 µM (inactive) | 16.5 µM (inactive) | 6.68 µM (inactive) | 24.9 µM (inactive) | 27.4 µM (inactive)
5 | O=C(CSCC(=O)N/N=C/c1cccs1)N/N=C/c1cccs1 | > 100 µM (inactive) | 54.3 µM (inactive) | > 100 µM (inactive) |  | 61.5 µM (inactive) | > 100 µM (inactive) | > 100 µM (inactive) | 30.6 µM (inactive) | 46.3 µM (inactive) | 72.9 µM (inactive) | 64.4 µM (inactive) | 43.2 µM (inactive) | 61.1 µM (inactive) | > 100 µM (inactive) | 38.8 µM (inactive) | 61 µM (inactive) | > 100 µM (inactive) | 27.2 µM (inactive) | > 100 µM (inactive)
6 | COc1ccccc1NCC(=O)Nn1c(C)nc2ccc(S(=O)(=O)Nc3ccccc3OC)cc2c1=O | > 100 µM (inactive) | > 100 µM (inactive) | > 100 µM (inactive) | 36.5 µM (inactive) | > 100 µM (inactive) | > 100 µM (inactive) | 43.8 µM (inactive) | 88.5 µM (inactive) | > 100 µM (inactive) | > 100 µM (inactive) | > 100 µM (inactive) | > 100 µM (inactive) | > 100 µM (inactive) | 63.4 µM (inactive) | > 100 µM (inactive) | 97.7 µM (inactive) | 80.4 µM (inactive) | > 100 µM (inactive) | 
7 | CCOC(=O)C1(C(=O)OCC)[C@H](c2ccccc2)C2=NO[C@@H]3CCC[C@H]1[C@H]23 | 34.8 µM (inactive) | > 100 µM (inactive) | 36 µM (inactive) | 30.8 µM (inactive) | 27.9 µM (inactive) | > 100 µM (inactive) | 35.8 µM (inactive) | 49.3 µM (inactive) | 20.5 µM (inactive) | > 100 µM (inactive) | 84.3 µM (inactive) | 44.8 µM (inactive) | > 100 µM (inactive) | 15.2 µM (inactive) | 57.1 µM (inactive) | > 100 µM (inactive) | 21.3 µM (inactive) | 54 µM (inactive) | 
8 | CCCC1CC(=O)NC(=O)C1C(=O)OC(C)(C)C (centres undefined) | > 100 µM (inactive) | > 100 µM (inactive) |  | 64.7 µM (inactive) | > 100 µM (inactive) | > 100 µM (inactive) | > 100 µM (inactive) | > 100 µM (inactive) | > 100 µM (inactive) | > 100 µM (inactive) | > 100 µM (inactive) | > 100 µM (inactive) | > 100 µM (inactive) | > 100 µM (inactive) | > 100 µM (inactive) | > 100 µM (inactive) | > 100 µM (inactive) |  | > 100 µM (inactive)
9 | Cc1c2ccccc2cc2nc3ccccc3n12 | > 10 µM (inactive) | > 10 µM (inactive) | > 10 µM (inactive) | > 10 µM (inactive) | > 10 µM (inactive) | > 10 µM (inactive) | > 10 µM (inactive) | > 10 µM (inactive) | > 10 µM (inactive) | > 10 µM (inactive) | > 10 µM (inactive) | > 10 µM (inactive) | > 10 µM (inactive) | > 10 µM (inactive) | > 10 µM (inactive) | > 10 µM (inactive) | > 10 µM (inactive) | > 10 µM (inactive) | 
10 | COc1cc(/C=N/n2c(-c3ccccc3)n[nH]c2=O)cc(OC)c1OC | 0.425 µM (active) | 5.77 µM (inactive) | 6.08 µM (inactive) |  | 11.4 µM (inactive) | 7.67 µM (inactive) | 4.39 µM (inactive) | 2.81 µM (inactive) | 4.93 µM (inactive) | 3.51 µM (inactive) | 4.02 µM (inactive) | 2.13 µM (inactive) | 3.56 µM (inactive) | 2.34 µM (inactive) | 4.41 µM (inactive) | 1.46 µM (inactive) | 0.598 µM (active) | 13.8 µM (inactive) | 3.15 µM (inactive)
11 | O=C(O)c1ccc(S(=O)(=O)c2ccccc2[N+](=O)[O-])cc1 | > 10 µM (inactive) | > 10 µM (inactive) | > 10 µM (inactive) | > 10 µM (inactive) | > 10 µM (inactive) | > 10 µM (inactive) | > 10 µM (inactive) | > 10 µM (inactive) | > 10 µM (inactive) | > 10 µM (inactive) | > 10 µM (inactive) | > 10 µM (inactive) | > 10 µM (inactive) | > 10 µM (inactive) | > 10 µM (inactive) | > 10 µM (inactive) | > 10 µM (inactive) |  | > 10 µM (inactive)
12 | CCCCC1Cc2cc(O)ccc2-c2nc3cc(O)ccc3n21.CCCCC1Cc2cc(O)ccc2-c2nc3ccc(O)cc3n21 (centres undefined) | 19.4 µM (inactive) | 28.5 µM (inactive) | 15.3 µM (inactive) | 12.6 µM (inactive) | 17.2 µM (inactive) | 16.5 µM (inactive) | 16.3 µM (inactive) | 12.6 µM (inactive) | 14.4 µM (inactive) | 12 µM (inactive) | 13.9 µM (inactive) | 19.2 µM (inactive) | 16.3 µM (inactive) | 12.8 µM (inactive) | 21.9 µM (inactive) | 21.8 µM (inactive) | 10.7 µM (inactive) | 4.28 µM (inactive) | 
13 | CC(=S)N/C=C1/C(=O)C=C(C)OC1=O | > 100 µM (inactive) | > 100 µM (inactive) | > 100 µM (inactive) |  | > 100 µM (inactive) | > 100 µM (inactive) | > 100 µM (inactive) | > 100 µM (inactive) | > 100 µM (inactive) | > 100 µM (inactive) | > 100 µM (inactive) | > 100 µM (inactive) | > 100 µM (inactive) | > 100 µM (inactive) | > 100 µM (inactive) |  | > 100 µM (inactive) | > 100 µM (inactive) | > 100 µM (inactive)
14 | CC1(c2nc3ccccc3[nH]2)CCC(C(N)=O)C(C)(C)O1 (centres undefined) | > 100 µM (inactive) | > 100 µM (inactive) | > 100 µM (inactive) | > 100 µM (inactive) | > 100 µM (inactive) | > 100 µM (inactive) | > 100 µM (inactive) | > 100 µM (inactive) | > 100 µM (inactive) | > 100 µM (inactive) | > 100 µM (inactive) | > 100 µM (inactive) | > 100 µM (inactive) | > 100 µM (inactive) | > 100 µM (inactive) | > 100 µM (inactive) | > 100 µM (inactive) | > 100 µM (inactive) | 
15 | CC(=O)O[C@H]1C[C@H](O[C@H]2[C@@H](O)C[C@H](O[C@H]3[C@@H](O)C[C@H](O[C@H]4CC[C@@]5(C)[C@H](CC[C@@H]6[C@@H]5CC[C@]5(C)[C@@H](C7=CC(=O)OC7)CC[C@]65O)C4)O[C@@H]3C)O[C@@H]2C)O[C@H](C)[C@H]1O[C@@H]1O[C@H](CO)[C@@H](O)[C@H](O)[C@H]1O | 0.065 µM (active) | < 0.01 µM (active) | 0.0634 µM (active) |  | < 0.0148 µM (active) | 0.0243 µM (active) | 0.0144 µM (active) | 0.0152 µM (active) | < 0.01 µM (active) | < 0.0125 µM (active) | < 0.01 µM (active) | < 0.0167 µM (active) | < 0.01 µM (active) | 0.132 µM (active) | < 0.01 µM (active) | 0.0278 µM (active) | 0.0815 µM (active) | 0.048 µM (active) | 0.0269 µM (active)
